In patent US9029092B2, “Solution phase homogeneous assays” (Beckman Coulter, Inc., priority 2009, dated 2015):
Where “and” joins values, the source holds several entries; their conditions need not be identical. Equal entries are not always repeated.

Test system: biotinylated HRP
Experiment: Model system for selection of SSIA (AK1/streptavidin BSA microparticles + biotinylated HRP)
Assay type: biochemical, horseradish
Details: SSIA 100 μM final
How it was run: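 Streptavidin/AK1/biotin-BSA M280 microparticles mixed with candidate SSIA (100 μM final) and Btn-HRP at 0, 1, 10, 100 or 250 ng/mL, with unlabeled HRP to 500 ng/mL total HRP. After 30 min at 37° C, trigger solution was added and light intensity recorded on a modified DxI analyzer.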

## O=C1O[C@H]([C@@H](O)CO)C(O)=C1O [Ascorbic Acid]
Btn-HRP 0 ng/mL, total HRP 500 ng/mL
  light intensity, BTN-HRP0: 97 and 151
Btn-HRP 1 ng/mL vs 0
  S1/S0: 7.8 and 6.6
Btn-HRP 1 ng/mL, total HRP 500 ng/mL
  light intensity, BTN-HRP1: 757 and 995
Btn-HRP 10 ng/mL vs 0
  S2/S0: 171.6 and 216.2
Btn-HRP 10 ng/mL, total HRP 500 ng/mL
  light intensity, BTN-HRP10: 16,641 and 32,568
Btn-HRP 100 ng/mL vs 0
  S3/S0: 38064.9 and 30222.2
Btn-HRP 100 ng/mL, total HRP 500 ng/mL
  light intensity, BTN-HRP100: 3,692,291 and 4,553,473
Btn-HRP 250 ng/mL vs 0
  S4/S0: 62228.3 and 59176.1
Btn-HRP 250 ng/mL, total HRP 500 ng/mL
  light intensity, BTN-HRP250: 6,036,145 and 8,915,869
  effectiveness as SSIA in the model system: demonstrating utility as SSIA
